Assay [1] concerns the target T1, MMP-2 (Homo sapiens, UniProt P08253).
T1 sequence (P08253 110-660): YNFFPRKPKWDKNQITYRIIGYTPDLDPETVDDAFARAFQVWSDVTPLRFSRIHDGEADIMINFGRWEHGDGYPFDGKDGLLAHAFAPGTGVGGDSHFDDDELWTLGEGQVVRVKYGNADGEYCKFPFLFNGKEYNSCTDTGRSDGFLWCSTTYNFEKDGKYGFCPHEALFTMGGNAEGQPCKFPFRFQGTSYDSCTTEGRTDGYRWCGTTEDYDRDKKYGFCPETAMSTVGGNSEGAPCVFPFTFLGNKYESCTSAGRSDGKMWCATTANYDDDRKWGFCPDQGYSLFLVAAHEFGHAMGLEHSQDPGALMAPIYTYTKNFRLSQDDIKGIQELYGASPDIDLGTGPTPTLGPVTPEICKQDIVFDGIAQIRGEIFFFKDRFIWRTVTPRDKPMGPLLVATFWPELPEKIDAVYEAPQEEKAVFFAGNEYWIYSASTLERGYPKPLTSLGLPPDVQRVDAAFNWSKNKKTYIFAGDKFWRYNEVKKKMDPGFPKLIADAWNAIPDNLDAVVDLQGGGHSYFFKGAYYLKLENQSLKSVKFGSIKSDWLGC
Description: K(obs) of individual phage substrates (set of 1369). Format: biochemical. Conditions: MMP2.

The target of another assay is MMP-9 (Homo sapiens, UniProt P14780). The assay is described as above. Format: biochemical. To be noted: MMP9.
Assay [2] deals with MMP-2. As to the kind of experiment: Substrate phage display with NGS: relative probability (RP) of P3-P1' tetramer clusters.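 Further: ratio of tetramer probability after protease selection to that in naive phage library.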 Format: biochemical, human. Conditions: MMP2.
[3] abbreviates: individual phage substrates, set of 1369 peptides, cleavage position marked by hyphen in sequence.
The mark [4] stands for this setting: individual phage substrates, set of 1369 peptides, hyphen in sequence marks cleavage position.
Setting [5] is: RP of the P3-P1' tetramer contained in the substrate (substrate phage display with NGS).
The mark [6] stands for this setting: individual phage substrate of the set of 1369 peptides, cleavage position marked by '-'.
Where [7] appears, read: individual phage substrate of the set of 1369 peptides, dash in the sequence marks the cleavage position.
Setting [8] is: RP of the P3-P1' tetramer contained in the substrate.

The values below come from PMC7932537, “Quantitative profiling of protease specificity” (PLoS Computational Biology, 2021).

Chain of MMP-9 (P14780 94-707): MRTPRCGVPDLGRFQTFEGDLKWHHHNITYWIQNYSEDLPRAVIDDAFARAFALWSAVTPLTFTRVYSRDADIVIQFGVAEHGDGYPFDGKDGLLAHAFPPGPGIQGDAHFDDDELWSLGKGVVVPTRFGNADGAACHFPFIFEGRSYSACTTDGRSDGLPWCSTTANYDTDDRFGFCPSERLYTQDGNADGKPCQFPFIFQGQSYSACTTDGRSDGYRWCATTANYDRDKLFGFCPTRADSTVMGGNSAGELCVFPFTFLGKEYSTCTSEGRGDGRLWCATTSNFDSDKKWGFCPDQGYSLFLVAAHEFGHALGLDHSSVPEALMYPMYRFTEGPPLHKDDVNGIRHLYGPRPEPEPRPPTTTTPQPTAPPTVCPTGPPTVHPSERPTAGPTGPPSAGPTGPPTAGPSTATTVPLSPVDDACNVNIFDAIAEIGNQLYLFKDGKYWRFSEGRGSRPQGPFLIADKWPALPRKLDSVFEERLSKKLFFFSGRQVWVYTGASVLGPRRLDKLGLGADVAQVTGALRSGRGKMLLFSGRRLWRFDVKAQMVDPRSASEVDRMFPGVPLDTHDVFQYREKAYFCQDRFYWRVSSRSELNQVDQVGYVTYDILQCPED

Consider ETMLA-LTASG, for which the “Kobs” value amounted to 484.315 M⁻¹ s⁻¹ on MMP-2 [1] (setting [3]) and 0 M⁻¹ s⁻¹ on MMP-9 (setting [4]). For the same substance, the “relative probability (RP)” value in the assay on MMP-2 [2] (setting [5]) came out at 5.6722.

Consider EVARA-MTASG, for which the Kobs stood at 7015.91 M⁻¹ s⁻¹ on MMP-2 [1] (setting [6]) and 5090.5 M⁻¹ s⁻¹ on MMP-9 (setting [7]). Moreover, the “relative probability (RP)” value with MMP-2 [2] (setting [8]) was 25.2992.

For the substance EVARA-WTASG, the “Kobs” value is 7386.83 M⁻¹ s⁻¹ on MMP-2 [1] (setting [3]) and 1513.13 M⁻¹ s⁻¹ on MMP-9 (setting [4]). Besides, in the assay on MMP-2 [2] (setting [5]), the “relative probability (RP)” value worked out at 17.4628.

Take FDAQS-LTASG: the Kobs on MMP-2 [1] (setting [6]) was 1711.63 M⁻¹ s⁻¹; at MMP-9 (setting [7]) it was 874.197 M⁻¹ s⁻¹. Moreover, the “relative probability (RP)” value in the assay with MMP-2 [2] (setting [8]) is 18.365.

On to FDISH-LTASG, for which the “Kobs” value at MMP-2 [1] (setting [3]) is 10866.7 M⁻¹ s⁻¹; on MMP-9 (setting [4]), 171.876 M⁻¹ s⁻¹. Further, in the assay with MMP-2 [2] (setting [5]), the “relative probability (RP)” value was found to be 30.7015.

In the case of FGPYA-MTASG, the Kobs turned out to be 1870.4 M⁻¹ s⁻¹ at MMP-2 [1] (setting [6]) and 12792.1 M⁻¹ s⁻¹ on MMP-9 (setting [7]). The “relative probability (RP)” value with MMP-2 [2] (setting [8]) is on record as 28.0901.

In the case of FMPRN-TASGA, the results for the Kobs on MMP-2 [1] (setting [6]) and at MMP-9 (setting [7]) were 2837.92 M⁻¹ s⁻¹ and 12792.1 M⁻¹ s⁻¹, respectively. The “relative probability (RP)” value in the assay on MMP-2 [2] (setting [8]) is given as 2.5391.

Consider FMPSA-QTASG, for which the Kobs on MMP-2 [1] (setting [6]) was 10866.7 M⁻¹ s⁻¹; on MMP-9 (setting [7]), 9740.44 M⁻¹ s⁻¹. Besides, the “relative probability (RP)” value with MMP-2 [2] (setting [8]) was 28.0379.

Consider FNPIH-LTASG, for which the values for the Kobs on MMP-2 [1] (setting [6]) and on MMP-9 (setting [7]) were 12792.1 M⁻¹ s⁻¹ and 10866.7 M⁻¹ s⁻¹, respectively. Further, in the assay with MMP-2 [2] (setting [8]), the “relative probability (RP)” value was 26.4106.

Take FPGRH-LTASG: the results for the Kobs on MMP-2 [1] (setting [6]) and on MMP-9 (setting [7]) were 1239.69 M⁻¹ s⁻¹ and 484.315 M⁻¹ s⁻¹, respectively. Moreover, the “relative probability (RP)” value in the assay with MMP-2 [2] (setting [8]) was 3.598.

Take FPVLS-LTASG: the figures for the “Kobs” value at MMP-2 [1] (setting [3]) and on MMP-9 (setting [4]) were 10866.7 M⁻¹ s⁻¹ and 6396.07 M⁻¹ s⁻¹, respectively. Besides, in the assay with MMP-2 [2] (setting [5]), the “relative probability (RP)” value is listed as 10.8506.

Regarding FQFEH-LTASG, the “Kobs” value at MMP-2 [1] (setting [3]) is 874.197 M⁻¹ s⁻¹; at MMP-9 (setting [4]), 113.394 M⁻¹ s⁻¹. Besides, the “relative probability (RP)” value in the assay on MMP-2 [2] (setting [5]) was determined as 1.21.

On to FSARS-LTASG, for which the “Kobs” value is 8941.32 M⁻¹ s⁻¹ on MMP-2 [1] (setting [3]) and 4613.14 M⁻¹ s⁻¹ at MMP-9 (setting [4]). The “relative probability (RP)” value in the assay on MMP-2 [2] (setting [5]) turned out to be 17.186.

FSLRQ-MTASG: the entries for the “Kobs” value on MMP-2 [1] (setting [3]) and on MMP-9 (setting [4]) were 990.764 M⁻¹ s⁻¹ and 690.17 M⁻¹ s⁻¹, respectively. The “relative probability (RP)” value in the assay with MMP-2 [2] (setting [5]) came out at 8.677.

On to FSQLA-MTASG, for which the “Kobs” value on MMP-2 [1] (setting [3]) and on MMP-9 (setting [4]) was 0 M⁻¹ s⁻¹ each time. Besides, the “relative probability (RP)” value in the assay on MMP-2 [2] (setting [5]) is listed as 5.241.

Regarding FVVRA-LTASG, the Kobs on MMP-2 [1] (setting [6]) amounted to 9740.44 M⁻¹ s⁻¹; on MMP-9 (setting [7]), 12792.1 M⁻¹ s⁻¹. The “relative probability (RP)” value in the assay with MMP-2 [2] (setting [8]) amounted to 30.4312.

GAAHG-IFTAS: the Kobs was 690.17 M⁻¹ s⁻¹ on MMP-2 [1] (setting [6]) and 261.974 M⁻¹ s⁻¹ at MMP-9 (setting [7]). Moreover, the “relative probability (RP)” value with MMP-2 [2] (setting [8]) was 8.881.

On to GAFRH-LRTAS, for which the Kobs is 201.585 M⁻¹ s⁻¹ on MMP-2 [1] (setting [6]) and 0 M⁻¹ s⁻¹ on MMP-9 (setting [7]). Besides, the “relative probability (RP)” value in the assay with MMP-2 [2] (setting [8]) was determined as 3.942.

GAPMN-VVTAS: the Kobs is 5889.62 M⁻¹ s⁻¹ on MMP-2 [1] (setting [6]) and 12792.1 M⁻¹ s⁻¹ on MMP-9 (setting [7]). In addition, the “relative probability (RP)” value with MMP-2 [2] (setting [8]) is recorded as 12.9651.

As for GAPRF-LSTAS, the Kobs at MMP-2 [1] (setting [6]) and at MMP-9 (setting [7]) was 12792.1 M⁻¹ s⁻¹ throughout. Moreover, the “relative probability (RP)” value with MMP-2 [2] (setting [8]) is 28.4443.

Consider GAPRS-LQTAS, for which the Kobs on MMP-2 [1] (setting [6]) and on MMP-9 (setting [7]) was 12792.1 M⁻¹ s⁻¹ in each case. Besides, in the assay on MMP-2 [2] (setting [8]), the “relative probability (RP)” value is 33.3704.

With GAPRS-LVTAS, the Kobs at MMP-2 [1] (setting [6]) and at MMP-9 (setting [7]) was 12792.1 M⁻¹ s⁻¹ each time. The “relative probability (RP)” value in the assay on MMP-2 [2] (setting [8]) came out at 33.3704.

GAPWG-IHTAS: the Kobs at MMP-2 [1] (setting [6]) and on MMP-9 (setting [7]) was 12792.1 M⁻¹ s⁻¹ throughout. For the same substance, in the assay with MMP-2 [2] (setting [8]), the “relative probability (RP)” value came to 25.1508.

As to GAWHN-MRTAS, the “Kobs” value on MMP-2 [1] (setting [3]) and at MMP-9 (setting [4]) was 0 M⁻¹ s⁻¹ each time. The “relative probability (RP)” value in the assay on MMP-2 [2] (setting [5]) turned out to be 0.

Regarding GCPHM-MTASG, the figures for the “Kobs” value at MMP-2 [1] (setting [3]) and on MMP-9 (setting [4]) were 654.784 M⁻¹ s⁻¹ and 1327.88 M⁻¹ s⁻¹, respectively. Further, the “relative probability (RP)” value in the assay with MMP-2 [2] (setting [5]) is reported as 14.968.

For the substance GCPLS-LYTAS, the “Kobs” value at MMP-2 [1] (setting [3]) is 4335.13 M⁻¹ s⁻¹; on MMP-9 (setting [4]), 6688.74 M⁻¹ s⁻¹. Besides, the “relative probability (RP)” value in the assay with MMP-2 [2] (setting [5]) is 33.5282.

For GCVRF-LQTAS, the Kobs was found to be 1239.69 M⁻¹ s⁻¹ at MMP-2 [1] (setting [6]) and 1071.29 M⁻¹ s⁻¹ on MMP-9 (setting [7]). Besides, in the assay on MMP-2 [2] (setting [8]), the “relative probability (RP)” value was 15.0438.
